Results on 35 molecules are retold here after US7632829B2, “Diazepan derivatives” (Hoffmann-La Roche Inc., priority 2006, dated 2009).

Molecules are shown by their SMILES.

This experiment deals with T1, human chemokine receptor 2 isoform B (Homo sapiens, UniProt P41597).
T1 construct: host or cells: CHOK1-CCR2B-A5 (CHO-K1)
T1 sequence (P41597 1-360 isoform P41597-2): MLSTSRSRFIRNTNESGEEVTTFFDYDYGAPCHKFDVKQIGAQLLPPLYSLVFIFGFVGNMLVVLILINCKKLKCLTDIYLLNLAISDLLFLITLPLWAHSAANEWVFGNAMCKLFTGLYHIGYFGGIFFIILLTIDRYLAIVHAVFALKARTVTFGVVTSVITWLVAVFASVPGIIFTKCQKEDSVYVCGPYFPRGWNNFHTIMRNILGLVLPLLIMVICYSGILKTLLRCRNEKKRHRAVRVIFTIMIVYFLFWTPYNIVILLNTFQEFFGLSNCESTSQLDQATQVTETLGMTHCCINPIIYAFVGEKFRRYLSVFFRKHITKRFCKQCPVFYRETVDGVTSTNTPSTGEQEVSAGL
As to the kind of experiment: Calcium mobilization assay (FLIPR, CHOK1-CCR2B-A5 cells, 20 nM MCP-1). Format: cell-based. Particulars: Ca mobilisation assay, CCR2, antagonist activity vs 20 nM MCP-1. An outline of the steps:
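Antagonism read as IC50 against 20 nM MCP-1-evoked calcium rise (peak minus baseline Fluo-4 signal, FLIPR) in CCR2B-overexpressing CHO-K1 cells. Compounds were preincubated 20-30 min at 30 °C, with agonist activity recorded for 80 s on addition.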

Take `COC1CCN(CCCN2CCN(C(=O)/C=C/c3ccc(Cl)c(Cl)c3)CCC2=O)CC1` [Example 79, 1-[(E)-3-(3,4-Dichloro-phenyl)-acryloyl]-4-[3-(4-methoxy-piperidin-1-yl)-propyl]-[1,4]diazepan-5-one]: the IC50 was found to be 706 nM. The same measure for `O=C(/C=C/c1ccc(Cl)c(Cl)c1)N1CCC(=O)N(CCCCN2CCN(C3CC3)CC2)CC1` [Example 437]: 463 nM; for `O=C(/C=C/c1ccc(Cl)c(Cl)c1)N1CCC(=O)N(CCCCN2CCC3(CC3)C(O)C2)CC1` (racemic) [Example 456]: 16 nM; for `O=C(/C=C/c1ccc(Cl)c(Cl)c1)N1CCC(=O)N(CC(O)CN2CCC(F)CC2)CC1` (racemic) [Example 169, (rac)-1-[(E)-3-(3,4-Dichloro-phenyl)-acryloyl]-4-[3-(4-fluoro-piperidin-1-yl)-2-hydroxy-propyl]-[1,4]diazepan-5-one]: 255 nM. Take `CC1CCN(CCN2CCN(C(=O)/C=C/c3ccc(Cl)c(Cl)c3)CCC2=O)CC1` [Example 120, 1-[(E)-3-(3,4-Dichloro-phenyl)-acryloyl]-4-[3-(4-methyl-piperidin-1-yl)-ethyl]-[1,4]diazepan-5-one]: the half-maximal inhibitory concentration (IC50) was 1140 nM.

`CC1(CO)CCCN1CCCCN1CCN(C(=O)/C=C/c2ccc(Cl)c(Cl)c2)CCC1=O` (racemic) [Example 462]: the half-maximal inhibitory concentration (IC50) is 41 nM. The same measure for `O=C(/C=C/c1ccc(Cl)c(Cl)c1)N1CCC(=O)N(CCCN2CCN(C3CCCC3)CC2)CC1` [Example 242]: 124 nM; for `COCC1CCCN(CCCCN2CCN(C(=O)/C=C/c3ccc(Cl)c(Cl)c3)CCC2=O)C1` (racemic) [Example 432]: 16 nM. In the case of `C[N+]1(CCCN2CCN(C(=O)C=Cc3ccc(Cl)c(Cl)c3)CCC2=O)CCCCC1` [Example 154, 1-(3-{4-[3-(3,4-Dichloro-phenyl)-acryloyl]-7-oxo-[1,4]diazepan-1-yl}-propyl)-1-methyl-piperidinium iodide], the half-maximal inhibitory concentration (IC50) stood at 373 nM. In the case of `C[C@@H]1[C@H](O)CCCN1CCCN1CCN(C(=O)/C=C/c2ccc(Cl)c(Cl)c2)CCC1=O` (racemic) [Example 226, (rac,cis)-1-[(E)-3-(3,4-Dichloro-phenyl)-acryloyl]-4-[3-(3-hydroxy-2-methyl-piperidin-1-yl)-propyl]-[1,4]diazepan-5-one], the IC50 worked out at 464 nM.

As for `O=C(C=Cc1ccc(F)c(Cl)c1)N1CCC(=O)N(CCCN2CCC(O)C(F)C2)CC1` (mixture of isomers) [Example 214, (rac,trans)-1-[(E)-3-(3-Chloro-4-fluoro-phenyl)-acryloyl]-4-[3-(3-fluoro-4-hydroxy-piperidin-1-yl)-propyl]-[1,4]diazepan-5-one], the half-maximal inhibitory concentration (IC50) worked out at 592 nM. The same measure for `C[C@H]1CCN(CCCN2CCN(C(=O)/C=C/c3ccc(F)c(Cl)c3)CCC2=O)C[C@H]1O` [Example 190, 1-[(E)-3-(3-Chloro-4-fluoro-phenyl)-acryloyl]-4-[3-((+, cis)-3-hydroxy-4-methyl-piperidin-1-yl)-propyl]-[1,4]diazepan-5-one]: 118 nM.

`O=C(/C=C/c1ccc(F)c(F)c1)N1CCC(=O)N(CC(O)CN2CCCCC2)CC1` (racemic) [Example 177, (rac)-1-[(E)-3-(3,4-Difluoro-phenyl)-acryloyl]-4-(2-hydroxy-3-piperidin-1-yl-propyl)-[1,4]diazepan-5-one]: the IC50 amounted to 954 nM. As for `O=C(/C=C/c1ccc(Cl)c(Cl)c1)N1CCC(=O)N(CCCN2CCC(O)(Cc3ccccc3)CC2)CC1` [Example 49, 4-[(E)-3-(4-Benzyl-4-hydroxy-piperidin-1-yl)-propyl]-1-[(E)-3-(3,4-dichloro-phenyl)-acryloyl]-[1,4]diazepan-5-one], the IC50 turned out to be 510 nM. Turning to `CC1(CO)CCCN1CCCN1CCN(C(=O)/C=C/c2ccc(Cl)c(Cl)c2)CCC1=O` (racemic) [Example 255], the IC50 worked out at 561 nM. The same measure for `O=C(/C=C/c1cccc(Cl)c1)N1CCC(=O)N(CCCN2CCCCC2)CC1` [Example 188, 1-[(E)-3-(3-Chloro-phenyl)-acryloyl]-4-(3-piperidin-1-yl-propyl)-[1,4]diazepan-5-one]: 1340 nM; for `O=C(/C=C/c1ccc(F)c(Cl)c1)N1CCC(=O)N(CCCCN2CCCC(O)C2)CC1` (racemic) [Example 383]: 198 nM; for `C[C@@H]1CN(CCCCN2CCN(C(=O)/C=C/c3ccc(Cl)c(Cl)c3)CCC2=O)CC[C@H]1O` (racemic) [Example 455, (rac)-1-[(E)-3-(3,4-Dichloro-phenyl)-acryloyl]-4-[4-(trans-4-hydroxy-3-methyl-piperidin-1-yl)-butyl]-[1,4]diazepan-5-one]: 106 nM. Take `O=C(/C=C/c1cccc(Cl)c1)N1CCC(=O)N(CCN2CCC(c3cccc(Cl)c3)CC2)CC1` [Example 34, 1-[(E)-3-(3-Chloro-phenyl)-acryloyl]-4-{2-[4-(3-chloro-phenyl)-piperidin-1-yl]-ethyl}-[1,4]diazepan-5-one]: the IC50 is 1390 nM. The same measure for `O=C(/C=C/c1ccc(Cl)c(Cl)c1)N1CCC(=O)N(CCCNC2CC3CCC2C3)CC1` (racemic) [Example 38, (+/−)-4-[3-(Bicyclo[2.2.1]hept-2-ylamino)-propyl]-1-[(E)-3-(3,4-dichloro-phenyl)-acryloyl]-[1,4] diazepan-5-one]: 121 nM; for `O=C(/C=C/c1ccc(F)c(F)c1)N1CCC(=O)N(CCCN2CCCCC2)CC1` [Example 7, 1-[(E)-3-(3,4-Difluoro-phenyl)-acryloyl]-4-(3-piperidin-1-yl-propyl)-[1,4]diazepan-5-one]: 1290 nM; for `COCC1C(O)CCC(C)N1CCCCN1CCN(C(=O)C=Cc2ccc(Cl)c(Cl)c2)CCC1=O` (racemic) [Example 488, (rac,cis)-1-[(E)-3-(3,4-Dichloro-phenyl)-acryloyl]-4-[4-(3-hydroxy-2-methoxymethyl-6-methyl-piperidin-1-yl)-butyl]-[1,4]diazepan-5-one]: 618 nM. As to `CC1(CO)CCN(CCCCN2CCN(C(=O)/C=C/c3ccc(Cl)c(Cl)c3)CCC2=O)CC1` (racemic) [Example 459], the IC50 was 267 nM. The same measure for `O=C(/C=C/c1ccc2ccccc2c1)N1CCC(=O)N(CCN2CCCC2)CC1` [Example 25, 1-(E)-(3-Naphthalen-2-yl-acryloyl)-4-(2-pyrrolidin-1-yl-ethyl)-[1,4]diazepan-5-one]: 1020 nM.

Consider `O=C(/C=C/c1ccc(Cl)c(Cl)c1)N1CCC(=O)N(CCN2CCC(O)(c3cccnc3)CC2)CC1` [Example 99, 1-[(E)-3-(3,4-Dichloro-phenyl)-acryloyl]-4-[3-(4′-hydroxy-3′,4′,5′,6′-tetrahydro-2′H-[3,4′]bipyridinyl-1′-yl)-ethyl]-[1,4]diazepan-5-one], for which the 50% inhibitory concentration (IC50) is 1220 nM. As for `O=C(/C=C/c1ccc(Cl)c(Cl)c1)N1CCC(=O)N(CC(O)CN2CC[C@H](O)[C@H](F)C2)CC1` (relative stereo) [Example 287], the figure is 848 nM. As to `COCC1CC(OC)C(O)CN1CCCCN1CCN(C(=O)/C=C/c2ccc(Cl)c(Cl)c2)CCC1=O` (racemic) [Example 478], the IC50 turned out to be 998 nM. As for `CC1CN(CC(O)CCN2CCN(C(=O)/C=C/c3ccc(Cl)c(Cl)c3)CCC2=O)CCC1O` (racemic) [Example 358], the IC50 turned out to be 873 nM.

As for `CC1(CO)CCN(CCCCN2CCN(C(=O)C=Cc3ccc(Cl)c(F)c3)CCC2=O)CC1O` (centres unmarked) [Example 411], the IC50 stood at 199 nM. As for `O=C(C=Cc1ccc(Cl)c(Cl)c1)N1CCC(=O)N(CCCCN2CCC(O)C(F)C2)CC1` (mixture of isomers) [Example 434, (rac,trans)-1-[(E)-3-(3,4-Dichloro-phenyl)-acryloyl]-4-[4-(3-fluoro-4-hydroxy-piperidin-1-yl)-butyl]-[1,4]diazepan-5-one], the figure is 140 nM. Consider `O=C(/C=C/c1ccc(Cl)c(Cl)c1)N1CCC(=O)N(CCCN2CCC(O)(c3cccnc3)CC2)CC1` [Example 70, 1-[(E)-3-(3,4-Dichloro-phenyl)-acryloyl]-4-[3-(4′-hydroxy-3′,4′,5′,6′-tetrahydro-2′H-[3,4′]bipyridinyl-1′-yl)-propyl]-[1,4]diazepan-5-one], for which the IC50 worked out at 146 nM. The same measure for `O=C(/C=C/c1ccc(Cl)c(Cl)c1)N1CCC(=O)N(C[C@@H](O)CN2CCC3(CC3)C(O)C2)CC1` (stereo partly drawn) [Example 332, 1-[(E)-3-(3,4-Dichloro-phenyl)-acryloyl]-4-[(S)-2-hydroxy-3-((+)-4-hydroxy-6-aza-spiro[2.5]oct-6-yl)-propyl]-[1,4]diazepan-5-one]: 2 nM; for `O=C(/C=C/c1ccc(Cl)c(Cl)c1)N1CCC(=O)N(CCCNC2CCOCC2)CC1` [Example 63, 1-[(E)-3-(3,4-Dichloro-phenyl)-acryloyl]-4-[3-(tetrahydro-pyran-4-ylamino)-propyl]-[1,4]diazepan-5-one]: 503 nM; for `CC(C)N1CCC(NCCN2CCN(C(=O)/C=C/c3ccc(Cl)c(Cl)c3)CCC2=O)CC1` [Example 136, 1-[(E)-3-(3,4-Dichloro-phenyl)-acryloyl]-4-[2-(1-isopropyl-piperidin-4-ylamino)-ethyl]-[1,4]diazepan-5-one]: 688 nM. As for `COCC1CCC(O)CN1CCCCN1CCN(C(=O)/C=C/c2ccc(Cl)c(Cl)c2)CCC1=O` (racemic) [Example 479], the figure is 232 nM.
